Assay [1] concerns Hamster Tracheal Organ Culture. Kind of assay: Tracheal organ culture assay: reversal of keratinization. Format: cell-based. On the procedure: (§1) The ODC assay measures a compound's ability to prevent the induction of ODC. The tracheal organ culture assay measures a compound's ability to reverse keratinization.
The tracheal organ culture assay is carried out as follows. Tracheas are taken from hamsters that are in very early stages of vitamin A deficiency and placed in organ culture. At the time of culture, the animals are still gaining weight; the tracheal epithelium is generally low columnar or cuboidal, with only occasional patches of squamous metaplasia. Each trachea is opened from the larynx to the carina along the membranous dorsal wall and cultured in a serum-free medium (CMRL-1066; with crystalline bovine insulin, 0.1 μg/ml; hydrocortisone hemisuccinate, 0.1 μg/ml; glutamine, 2 mM; penicillin, 100 units/ml; and streptomycin,100 μg/ml, added). Cultures are gassed with 50% oxygen, 45% nitrogen, and 5% CO2. The culture dishes are rocked at 35.5-36.0 degrees to allow the tracheas contact with both gas and medium. All tracheas are grown in medium containing no retinoid for the first 3 days. At the end of 3 days, some tracheas are harvested; almost of these tracheas have significant squamous metaplasia, and approximately 60% have keratinized lesions. The remaining tracheas are then divided into different groups which are treated with either: (1) retinoid dissolved in dimethylsulfoxide (final concentration of DMSO in culture medium is never greater than 0.1%) or (2) an equivalent amount of DMSO alone. Culture medium is changed three times a week, and all of the remaining tracheas are harvested at the end of 10 days in culture. Tracheas are fixed in 10% buffered formalin and embedded in paraffin. Cross sections of five micrometers are made through the mid-portion, stained with hematoxylin and eosin, and then scored with a microscope for the presence of keratin and keratohyaline granules, both of which are found in approximately 90% of control cultures that received no retinoid for the entire 10 day culture period.

Another assay concerns Ornithine Decarboxylase. As to the kind of experiment: ODC assay: inhibition of induction of ornithine decarboxylase by TPA in mouse skin. Format: in vivo, mouse (female Charles River CD-1). The settings on record: topical, 1 hour before TPA (17 nmol). On the procedure:
as §1
The ODC assay is carried out as follows. Female Charles River CD-1 mice from Charles River Breeding Laboratories, Wilmington, Mass., are used (age 7 to 9 weeks). The dorsal hair of the mice is shaved 1 to 2 days before testing, and only mice showing no hair regrowth are used. […] The test compound, at one of three dose levels (1.7, 17 and 170 nmol), dissolved in 0.2 mL of acetone is applied 1 hour before the TPA treatment to the test groups; the control group is treated with acetone alone. The mice are killed by cervical dislocation five hours after TPA treatment. Determinations are done in triplicate.
The epidermis is obtained from the sacrificed animals. To obtain sufficient material, the dorsal skins from 2 to 3 mice in each treatment group are pooled. […]
The supernatant fraction remaining after centrifugation of the homogenate at 10,000×g for 30 seconds at 0° C. is used for the enzyme assay. Enzyme activity is determined using the microassay for ODC as described by Verma and Boutwell to measure the release of ^14 CO2 from DL-[1-^14 C]-ornithine (58 mCi/mmol) after incubation with the 10,000×g supernatant. […]

Consider `CC1=C(/C=C/C(C)=C/C=C/C(C)=C/C(=O)O)C(C)(C)CCC1` [Retinoic Acid], for which the “Reversal of Keratinization in Hamster Tracheal Organ Culture, Active/Total Cultures (%)” value worked out at 100% in assay [1] (Conc 10^-8 M), 88% in assay [1] (Conc 10^-9 M) and 52% in assay [1] (Conc 10^-10 M).
Regarding `CCOC(=O)c1ccc(/C=C(C)/C=C/C2=C(C)CCCC2(C)C)cn1` [Example, (E)-1-(2-Carbethoxy-5-pyridyl)-2-methyl-4-(2,6,6-trimethyl-1-cyclohexen-1-yl)-1,3-butadiene], the “Inhibition of Induction of Ornithine Decarboxylase by 12-O-Tetradecanoylphorbol-13-acetate in Mouse Skin, % Inhibition of Control” value in the assay on Ornithine Decarboxylase (Dose 1.7 nmol) is 29%; in the assay with Ornithine Decarboxylase (Dose 17 nmol), 68%. The “Reversal of Keratinization in Hamster Tracheal Organ Culture, Active/Total Cultures” value in assay [1] (Conc 10^-8 M) was 7/7; in assay [1] (Conc 10^-9 M) it was 8/14; in assay [1] (Conc 10^-10 M) it was 4/14; in assay [1] (Conc 10^-11 M) it was 1/7. Further, the “Reversal of Keratinization in Hamster Tracheal Organ Culture, Active/Total Cultures (%)” value in assay [1] (Conc 10^-8 M) is 100%; in assay [1] (Conc 10^-9 M), 57%; in assay [1] (Conc 10^-10 M), 29%; in assay [1] (Conc 10^-11 M) it was 14%.

The values above are taken from patent US4526787A, “N-heterocyclic retinoic acid analogues” (SRI International, priority 1983, dated 1985).
